Measurements: ChEMBL document CHEMBL1201862, “PubChem BioAssay data set” (2004)
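1) Cells in 96-well plates. 2) Compound, 48 h, 5 concentrations. 3) Linear interpolation between surrounding doses. 4) Unreached endpoint = highest concentration. GI50: concentration for 50% inhibition of growth.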 Active and inactive are the calls of the source. Rule as the data show it: active = GI50 up to about 1.1 µM and inactive = higher.

Tests used:
Experiment in all cases: NCI-60 cell line screen, 48 h
OVCAR-8 = tested on: OVCAR-8
SF-539 = tested on: SF-539
HL-60 = tested on: HL-60
SR = tested on: SR
HCT-15 = tested on: HCT-15
COLO 205 = tested on: COLO 205
NCI-H226 = tested on: NCI-H226
MDA-MB-435 = tested on: MDA-MB-435
786-0 = tested on: 786-0
UACC-257 = tested on: UACC-257
SW-620 = tested on: SW-620
LOX IMVI = tested on: LOX IMVI
NCI/ADR-RES = tested on: NCI/ADR-RES
DU-145 = tested on: DU-145
CCRF-CEM = tested on: CCRF-CEM
SK-MEL-5 = tested on: SK-MEL-5
OVCAR-5 = tested on: OVCAR-5
MOLT-4 = tested on: MOLT-4
OVCAR-4 = tested on: OVCAR-4

SMILES	GI50 (OVCAR-8)	GI50 (SF-539)	GI50 (HL-60)	GI50 (SR)	GI50 (HCT-15)	GI50 (COLO 205)	GI50 (NCI-H226)	GI50 (MDA-MB-435)	GI50 (786-0)	GI50 (UACC-257)	GI50 (SW-620)	GI50 (LOX IMVI)	GI50 (NCI/ADR-RES)	GI50 (DU-145)	GI50 (CCRF-CEM)	GI50 (SK-MEL-5)	GI50 (OVCAR-5)	GI50 (MOLT-4)	GI50 (OVCAR-4)
COc1ccc(CNc2nc3ccccc3nc2C(=O)O)cc1	> 100 µM (inactive)	> 100 µM (inactive)	95.7 µM (inactive)	41.1 µM (inactive)	23.1 µM	71.6 µM (inactive)	> 100 µM (inactive)	> 100 µM (inactive)	57.8 µM (inactive)	> 100 µM (inactive)	> 100 µM (inactive)	45.4 µM (inactive)	38.9 µM (inactive)	66.4 µM (inactive)	83.4 µM (inactive)	52.6 µM (inactive)	> 100 µM (inactive)	> 10 µM (inactive)	–
COc1cc(C(c2ccc3c(c2)OCO3)C2SCCCS2)cc(OC)c1OC (stereo not given)	4.71 µM (inactive)	–	–	0.332 µM (active)	2.02 µM	1.63 µM (inactive)	2.7 µM (inactive)	0.661 µM (active)	2.74 µM (inactive)	6.08 µM (inactive)	3.11 µM (inactive)	–	2.15 µM (inactive)	3.03 µM (inactive)	1.49 µM (inactive)	3.34 µM (inactive)	4.81 µM (inactive)	2.87 µM (inactive)	6.65 µM (inactive)
COc1cc(COC(=O)N2CCC2C(=O)O)c([N+](=O)[O-])cc1OC (stereo not given)	> 100 µM (inactive)	> 100 µM (inactive)	> 100 µM (inactive)	> 100 µM (inactive)	> 100 µM	> 100 µM (inactive)	> 100 µM (inactive)	> 100 µM (inactive)	> 100 µM (inactive)	> 100 µM (inactive)	> 100 µM (inactive)	–	> 100 µM (inactive)	> 100 µM (inactive)	> 100 µM (inactive)	> 100 µM (inactive)	> 100 µM (inactive)	> 100 µM (inactive)	–
CCOC(=O)/C=C1\Nc2ccccc2C12CCc1c([nH]c3ccccc13)C2C(=O)OCC (stereo not given)	88.7 µM (inactive)	71.8 µM (inactive)	26.1 µM (inactive)	25.8 µM (inactive)	46.5 µM	4.66 µM (inactive)	–	6.27 µM (inactive)	57.8 µM (inactive)	24 µM (inactive)	17.8 µM (inactive)	39.2 µM (inactive)	11.8 µM (inactive)	98.2 µM (inactive)	29 µM (inactive)	21.8 µM (inactive)	> 100 µM (inactive)	8.79 µM (inactive)	16.3 µM (inactive)
CC(=O)O[C@H]1CC[C@@]2(C)C(=CC[C@@H]3[C@@H]2CC[C@]2(C)c4nc(Cl)ccc4C[C@@H]32)C1	37.2 µM (inactive)	–	33.8 µM (inactive)	37 µM (inactive)	40 µM	39.1 µM (inactive)	> 100 µM (inactive)	41.4 µM (inactive)	32 µM (inactive)	32.9 µM (inactive)	59 µM (inactive)	40.9 µM (inactive)	47.4 µM (inactive)	80.4 µM (inactive)	20.6 µM (inactive)	30.8 µM (inactive)	38.1 µM (inactive)	30.8 µM (inactive)	38.8 µM (inactive)
Cc1c(C)c(S(=O)(=O)N(CCCCCON)OCCCN)c(C)c2c1OC(C)(C)CC2	11 µM (inactive)	15.2 µM (inactive)	5.74 µM (inactive)	2.71 µM (inactive)	15.2 µM	3.48 µM (inactive)	17.9 µM (inactive)	11.8 µM (inactive)	16.7 µM (inactive)	15.9 µM (inactive)	15 µM (inactive)	9.73 µM (inactive)	15.9 µM (inactive)	0.883 µM (active)	–	15.9 µM (inactive)	14.9 µM (inactive)	4.94 µM (inactive)	7.5 µM (inactive)
CN(Cc1cnc2nc(N)nc(N)c2n1)c1ccc(C(=O)NC(CO)CCCO)cc1 (stereo not given)	> 100 µM (inactive)	> 100 µM (inactive)	> 100 µM (inactive)	> 100 µM (inactive)	> 100 µM	> 100 µM (inactive)	> 100 µM (inactive)	> 100 µM (inactive)	> 100 µM (inactive)	> 100 µM (inactive)	> 100 µM (inactive)	> 100 µM (inactive)	> 100 µM (inactive)	> 100 µM (inactive)	> 100 µM (inactive)	> 100 µM (inactive)	> 100 µM (inactive)	> 100 µM (inactive)	–
O=S1(=O)c2ccccc2NC(=S)CC1c1ccccc1 (stereo not given)	72.9 µM (inactive)	–	> 100 µM (inactive)	> 100 µM (inactive)	> 100 µM	36.6 µM (inactive)	> 100 µM (inactive)	> 100 µM (inactive)	> 100 µM (inactive)	24.8 µM (inactive)	–	> 100 µM (inactive)	> 100 µM (inactive)	> 100 µM (inactive)	> 100 µM (inactive)	> 100 µM (inactive)	> 100 µM (inactive)	> 100 µM (inactive)	> 100 µM (inactive)
COC(=O)C(Cc1ccccc1)OC(=O)C(N)CC(=O)O (stereo not given)	> 100 µM (inactive)	> 100 µM (inactive)	–	> 100 µM (inactive)	> 100 µM	> 100 µM (inactive)	> 100 µM (inactive)	17.1 µM (inactive)	> 100 µM (inactive)	32.4 µM (inactive)	> 100 µM (inactive)	–	> 100 µM (inactive)	> 100 µM (inactive)	–	> 100 µM (inactive)	> 100 µM (inactive)	> 100 µM (inactive)	–
CN(C(=O)[C@H](NC(=O)OCc1ccccc1)c1ccccc1)C1CCCCC1N1CCCC1 (stereo not given in full)	> 100 µM (inactive)	–	–	20.7 µM (inactive)	> 100 µM	87.9 µM (inactive)	0.55 µM (active)	70.8 µM (inactive)	95.1 µM (inactive)	26.1 µM (inactive)	> 100 µM (inactive)	77.6 µM (inactive)	> 100 µM (inactive)	> 100 µM (inactive)	38.8 µM (inactive)	16 µM (inactive)	> 100 µM (inactive)	23.7 µM (inactive)	51.4 µM (inactive)
c1ccc2c(-c3ccnc(-c4c[nH]c5ccccc45)n3)c[nH]c2c1	5.93 µM (inactive)	4.37 µM (inactive)	2.29 µM (inactive)	4.25 µM (inactive)	3.19 µM	5.45 µM (inactive)	–	4.52 µM (inactive)	2.12 µM (inactive)	4.34 µM (inactive)	4.86 µM (inactive)	2.82 µM (inactive)	16.4 µM (inactive)	12.4 µM (inactive)	1.51 µM (inactive)	3.27 µM (inactive)	> 100 µM (inactive)	1.87 µM (inactive)	8.69 µM (inactive)
COn1cc(C=O)c2ccccc21	> 93.8 µM (inactive)	> 45.6 µM (inactive)	0.551 µM (active)	26.4 µM (inactive)	> 70.5 µM	> 100 µM (inactive)	> 20.2 µM (inactive)	10.8 µM (inactive)	> 67 µM (inactive)	> 78.9 µM (inactive)	26 µM (inactive)	> 65.2 µM (inactive)	> 70.8 µM (inactive)	> 82 µM (inactive)	–	28.1 µM (inactive)	> 74.6 µM (inactive)	33.2 µM (inactive)	> 50.5 µM (inactive)
CC12CCC(=O)C=C1CCC1C2C(O)CC2(C)C(c3csc(N)n3)CCC12.O=S(=O)(O)c1ccc(Br)cc1 (stereo not given)	> 100 µM (inactive)	> 100 µM (inactive)	–	> 100 µM (inactive)	> 100 µM	> 100 µM (inactive)	> 100 µM (inactive)	> 100 µM (inactive)	> 100 µM (inactive)	> 100 µM (inactive)	> 100 µM (inactive)	> 100 µM (inactive)	> 100 µM (inactive)	> 100 µM (inactive)	< 0.01 µM (active)	> 100 µM (inactive)	> 100 µM (inactive)	> 100 µM (inactive)	> 100 µM (inactive)
CC(=O)Oc1ccc2c3c1O[C@H]1[C@H](O)CC[C@@]4(O)[C@@H](C2)N(C)CC[C@]314	> 100 µM (inactive)	> 100 µM (inactive)	> 100 µM (inactive)	> 100 µM (inactive)	> 100 µM	> 100 µM (inactive)	> 100 µM (inactive)	> 100 µM (inactive)	> 100 µM (inactive)	> 100 µM (inactive)	> 100 µM (inactive)	> 100 µM (inactive)	> 100 µM (inactive)	> 100 µM (inactive)	–	> 100 µM (inactive)	> 100 µM (inactive)	> 100 µM (inactive)	> 100 µM (inactive)
O=C(O)C1C2CC3C(OC(=O)C31)C2Br (stereo not given)	> 100 µM (inactive)	> 100 µM (inactive)	–	0.432 µM (active)	> 100 µM	> 100 µM (inactive)	> 100 µM (inactive)	> 100 µM (inactive)	> 100 µM (inactive)	> 100 µM (inactive)	> 100 µM (inactive)	> 100 µM (inactive)	> 100 µM (inactive)	> 100 µM (inactive)	> 100 µM (inactive)	> 100 µM (inactive)	> 100 µM (inactive)	> 39.5 µM (inactive)	> 100 µM (inactive)
CSCCCNC(=O)c1csc(-c2csc(CCN)n2)n1	> 100 µM (inactive)	> 100 µM (inactive)	> 100 µM (inactive)	91.4 µM (inactive)	54.8 µM	> 100 µM (inactive)	–	> 100 µM (inactive)	> 100 µM (inactive)	> 100 µM (inactive)	> 100 µM (inactive)	59.7 µM (inactive)	> 100 µM (inactive)	> 100 µM (inactive)	75.2 µM (inactive)	93.1 µM (inactive)	49.4 µM (inactive)	> 100 µM (inactive)	> 100 µM (inactive)
